Results from ChEMBL document CHEMBL4507277.

Key:
[1] = molecular target: Muscle, skeletal receptor tyrosine-protein kinase (Homo sapiens) (UniProt O15146); conditions: Compound concentration 1000.0 nM
[2] = molecular target: Serine/threonine-protein kinase Nek4 (Homo sapiens) (UniProt P51957); conditions: Compound concentration 1000.0 nM
[3] = molecular target: Mitogen-activated protein kinase 14 (Homo sapiens) (UniProt Q16539); conditions: Compound concentration 1000.0 nM
[4] = molecular target: Serine/threonine-protein kinase 38 (Homo sapiens) (UniProt Q15208); conditions: Compound concentration 1000.0 nM
[5] = molecular target: Serine/threonine-protein kinase N2 (Homo sapiens) (UniProt Q16513); conditions: Compound concentration 1000.0 nM
[6] = molecular target: Serine/threonine-protein kinase Nek7 (Homo sapiens) (UniProt Q8TDX7); conditions: Compound concentration 1000.0 nM
[7] = molecular target: Cyclin-dependent kinase 4 (Homo sapiens) (UniProt P11802); conditions: Compound concentration 1000.0 nM
[8] = molecular target: Tyrosine-protein kinase JAK1 (Homo sapiens) (UniProt P23458); conditions: Compound concentration 1000.0 nM
[9] = molecular target: Serine/threonine-protein kinase tousled-like 2 (Homo sapiens) (UniProt Q86UE8); conditions: Compound concentration 1000.0 nM
[10] = molecular target: SRSF protein kinase 3 (Homo sapiens) (UniProt Q9UPE1); conditions: Compound concentration 1000.0 nM
[11] = test system: Tyrosine-protein kinase ABL1 (Homo sapiens), P00519 [F317L]; conditions: Compound concentration 1000.0 nM
[12] = molecular target: Serine/threonine-protein kinase 32B (Homo sapiens) (UniProt Q9NY57); conditions: Compound concentration 1000.0 nM
[13] = molecular target: Transient receptor potential cation channel subfamily M member 6 (Homo sapiens) (UniProt Q9BX84); conditions: Compound concentration 1000.0 nM
[14] = molecular target: Ribosomal protein S6 kinase alpha-6 (Homo sapiens) (UniProt Q9UK32); conditions: Compound concentration 1000.0 nM
[15] = molecular target: Serine/threonine-protein kinase 10 (Homo sapiens) (UniProt O94804); conditions: Compound concentration 1000.0 nM
[16] = molecular target: 5-hydroxytryptamine receptor 1E (Homo sapiens) (UniProt P28566); conditions: Compound concentration 10.0 uM
[17] = molecular target: Mitogen-activated protein kinase 9 (Homo sapiens) (UniProt P45984); conditions: Compound concentration 1000.0 nM
[18] = test system: Tyrosine-protein kinase ABL1 (Homo sapiens), P00519 [Q252H]; conditions: Compound concentration 1000.0 nM
[19] = molecular target: Tyrosine-protein kinase Fes/Fps (Homo sapiens) (UniProt P07332); conditions: Compound concentration 1000.0 nM
[20] = molecular target: 5-hydroxytryptamine receptor 2C (Homo sapiens) (UniProt P28335); conditions: Compound concentration 10.0 uM
[21] = molecular target: cAMP-dependent protein kinase catalytic subunit beta (Homo sapiens) (UniProt P22694); conditions: Compound concentration 1000.0 nM
[22] = molecular target: Serine/threonine-protein kinase 25 (Homo sapiens) (UniProt O00506); conditions: Compound concentration 1000.0 nM
[23] = molecular target: Serine/threonine-protein kinase 33 (Homo sapiens) (UniProt Q9BYT3); conditions: Compound concentration 1000.0 nM
[24] = molecular target: Receptor-type tyrosine-protein kinase FLT3 (Homo sapiens) (UniProt P36888); conditions: Compound concentration 1000.0 nM
[25] = molecular target: Serine/threonine-protein kinase ICK (Homo sapiens) (UniProt Q9UPZ9); conditions: Compound concentration 1000.0 nM
[26] = molecular target: Mitogen-activated protein kinase kinase kinase 5 (Homo sapiens) (UniProt Q99683); conditions: Compound concentration 1000.0 nM
[27] = molecular target: Delta-type opioid receptor (Homo sapiens) (UniProt P41143); conditions: Compound concentration 10.0 uM
[28] = molecular target: Alpha-2C adrenergic receptor (Homo sapiens) (UniProt P18825); conditions: Compound concentration 10.0 uM
[29] = molecular target: Mitogen-activated protein kinase kinase kinase 12 (Homo sapiens) (UniProt Q12852); conditions: Compound concentration 1000.0 nM
[30] = molecular target: Ribosomal protein S6 kinase alpha-6 (Homo sapiens) (UniProt Q9UK32); conditions: Compound concentration 1000.0 nM; remark: listed apart in the source
[31] = test system: Proto-oncogene tyrosine-protein kinase receptor Ret (Homo sapiens), P07949 [V804L]; conditions: Compound concentration 1000.0 nM
[32] = molecular target: Mitogen-activated protein kinase kinase kinase 11 (Homo sapiens) (UniProt Q16584); conditions: Compound concentration 1000.0 nM
[33] = test system: Tyrosine-protein kinase ABL1 (Homo sapiens), P00519 [F317I]; conditions: Compound concentration 1000.0 nM
[34] = molecular target: Mitogen-activated protein kinase kinase kinase 13 (Homo sapiens) (UniProt O43283); conditions: Compound concentration 1000.0 nM
[35] = molecular target: Citron Rho-interacting kinase (Homo sapiens) (UniProt O14578); conditions: Compound concentration 1000.0 nM
[36] = test system: Serine/threonine-protein kinase B-raf (Homo sapiens), P15056 [V600E]; conditions: Compound concentration 1000.0 nM
[37] = molecular target: Serine/threonine-protein kinase BRSK1 (Homo sapiens) (UniProt Q8TDC3); conditions: Compound concentration 1000.0 nM
[38] = test system: Epidermal growth factor receptor (Homo sapiens), P00533 [UNDEFINED MUTATION]; conditions: Compound concentration 1000.0 nM
[39] = molecular target: G protein-coupled receptor kinase 3 (Homo sapiens) (UniProt P35626); conditions: Compound concentration 1000.0 nM
[40] = molecular target: Protein kinase C eta type (Homo sapiens) (UniProt P24723); conditions: Compound concentration 1000.0 nM
[41] = molecular target: Serine/threonine-protein kinase PAK 6 (Homo sapiens) (UniProt Q9NQU5); conditions: Compound concentration 1000.0 nM
[42] = molecular target: Muscarinic acetylcholine receptor M5 (Homo sapiens) (UniProt P08912); conditions: Compound concentration 10.0 uM
[43] = molecular target: Serine/threonine-protein kinase WNK4 (Homo sapiens) (UniProt Q96J92); conditions: Compound concentration 1000.0 nM
[44] = molecular target: MAP/microtubule affinity-regulating kinase 3 (Homo sapiens) (UniProt P27448); conditions: Compound concentration 1000.0 nM
[45] = test system: Hepatocyte growth factor receptor (Homo sapiens), P08581 [Y1235D]; conditions: Compound concentration 1000.0 nM

Chain of Ribosomal protein S6 kinase alpha-6 (Homo sapiens) (Q9UK32 whole entry): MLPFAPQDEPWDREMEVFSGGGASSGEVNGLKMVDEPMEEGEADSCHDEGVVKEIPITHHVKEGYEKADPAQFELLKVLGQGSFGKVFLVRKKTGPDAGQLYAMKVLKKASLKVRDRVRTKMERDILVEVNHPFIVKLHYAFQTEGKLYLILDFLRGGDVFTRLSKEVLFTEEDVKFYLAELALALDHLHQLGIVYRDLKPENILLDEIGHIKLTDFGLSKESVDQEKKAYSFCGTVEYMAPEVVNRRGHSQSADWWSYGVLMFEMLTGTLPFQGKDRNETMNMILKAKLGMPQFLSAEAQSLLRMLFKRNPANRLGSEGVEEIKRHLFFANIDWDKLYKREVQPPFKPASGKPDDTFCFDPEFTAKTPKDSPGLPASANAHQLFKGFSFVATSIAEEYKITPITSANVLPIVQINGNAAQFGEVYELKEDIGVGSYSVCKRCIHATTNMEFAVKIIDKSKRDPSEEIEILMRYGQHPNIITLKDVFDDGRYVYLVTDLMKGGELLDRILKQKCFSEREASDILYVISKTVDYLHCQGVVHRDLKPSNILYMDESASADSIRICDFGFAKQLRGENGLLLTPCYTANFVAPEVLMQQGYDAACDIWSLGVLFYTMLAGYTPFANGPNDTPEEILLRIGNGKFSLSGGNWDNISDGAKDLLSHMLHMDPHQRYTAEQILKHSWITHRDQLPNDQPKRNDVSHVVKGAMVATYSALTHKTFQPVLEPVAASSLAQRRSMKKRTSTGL
Chain of Transient receptor potential cation channel subfamily M member 6 (Homo sapiens) (Q9BX84 whole entry): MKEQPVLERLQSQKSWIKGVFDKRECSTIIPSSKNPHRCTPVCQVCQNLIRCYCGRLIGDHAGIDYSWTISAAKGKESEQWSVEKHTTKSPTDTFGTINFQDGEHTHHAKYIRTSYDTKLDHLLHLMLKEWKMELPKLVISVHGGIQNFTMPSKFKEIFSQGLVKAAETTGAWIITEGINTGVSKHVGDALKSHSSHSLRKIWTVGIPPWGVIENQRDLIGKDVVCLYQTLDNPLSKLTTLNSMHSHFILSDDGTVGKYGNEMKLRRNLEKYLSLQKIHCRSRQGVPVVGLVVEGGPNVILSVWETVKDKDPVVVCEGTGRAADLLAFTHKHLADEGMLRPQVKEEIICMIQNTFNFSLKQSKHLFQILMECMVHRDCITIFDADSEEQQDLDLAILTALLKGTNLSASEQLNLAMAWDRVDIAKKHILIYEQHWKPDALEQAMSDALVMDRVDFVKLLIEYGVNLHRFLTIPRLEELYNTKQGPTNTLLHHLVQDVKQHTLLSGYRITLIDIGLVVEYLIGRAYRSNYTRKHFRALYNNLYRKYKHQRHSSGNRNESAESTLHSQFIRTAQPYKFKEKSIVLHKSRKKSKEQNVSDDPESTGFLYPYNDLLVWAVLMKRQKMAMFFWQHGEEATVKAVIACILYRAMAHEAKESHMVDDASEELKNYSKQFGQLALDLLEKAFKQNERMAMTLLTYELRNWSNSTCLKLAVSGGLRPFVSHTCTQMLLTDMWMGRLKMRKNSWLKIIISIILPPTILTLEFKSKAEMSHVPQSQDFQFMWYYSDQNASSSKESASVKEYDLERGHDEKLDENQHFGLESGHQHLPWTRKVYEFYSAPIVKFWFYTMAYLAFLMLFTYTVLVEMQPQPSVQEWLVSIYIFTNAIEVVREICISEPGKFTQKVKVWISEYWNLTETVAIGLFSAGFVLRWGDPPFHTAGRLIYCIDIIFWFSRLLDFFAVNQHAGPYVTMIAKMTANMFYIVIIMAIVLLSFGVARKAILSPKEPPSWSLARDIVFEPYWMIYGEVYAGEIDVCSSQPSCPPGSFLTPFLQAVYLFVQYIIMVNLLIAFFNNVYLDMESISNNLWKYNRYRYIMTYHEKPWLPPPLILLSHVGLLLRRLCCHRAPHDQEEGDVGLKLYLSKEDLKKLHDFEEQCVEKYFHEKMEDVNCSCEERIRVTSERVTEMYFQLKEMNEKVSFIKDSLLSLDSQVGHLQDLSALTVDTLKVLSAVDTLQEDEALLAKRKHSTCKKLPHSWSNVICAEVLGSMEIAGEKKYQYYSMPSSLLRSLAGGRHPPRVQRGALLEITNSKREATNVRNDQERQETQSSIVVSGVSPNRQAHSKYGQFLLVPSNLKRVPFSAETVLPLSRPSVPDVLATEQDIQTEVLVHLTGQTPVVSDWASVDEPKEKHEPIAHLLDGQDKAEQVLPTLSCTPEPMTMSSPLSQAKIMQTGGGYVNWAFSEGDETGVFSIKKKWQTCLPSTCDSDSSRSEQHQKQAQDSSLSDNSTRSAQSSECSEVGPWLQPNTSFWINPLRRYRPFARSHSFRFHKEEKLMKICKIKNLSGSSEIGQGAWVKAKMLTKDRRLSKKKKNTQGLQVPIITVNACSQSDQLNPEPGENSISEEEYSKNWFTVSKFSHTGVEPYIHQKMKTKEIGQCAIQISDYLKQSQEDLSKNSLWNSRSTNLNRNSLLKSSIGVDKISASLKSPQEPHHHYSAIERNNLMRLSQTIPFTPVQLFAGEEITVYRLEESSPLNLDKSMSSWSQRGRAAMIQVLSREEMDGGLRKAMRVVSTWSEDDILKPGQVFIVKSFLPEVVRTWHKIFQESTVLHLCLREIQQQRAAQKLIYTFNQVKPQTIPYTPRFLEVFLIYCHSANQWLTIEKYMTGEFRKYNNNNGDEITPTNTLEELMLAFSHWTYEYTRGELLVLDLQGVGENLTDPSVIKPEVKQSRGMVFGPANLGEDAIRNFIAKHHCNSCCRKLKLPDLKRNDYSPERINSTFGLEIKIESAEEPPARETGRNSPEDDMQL
Chain of Mitogen-activated protein kinase 14 (Homo sapiens) (Q16539 whole entry): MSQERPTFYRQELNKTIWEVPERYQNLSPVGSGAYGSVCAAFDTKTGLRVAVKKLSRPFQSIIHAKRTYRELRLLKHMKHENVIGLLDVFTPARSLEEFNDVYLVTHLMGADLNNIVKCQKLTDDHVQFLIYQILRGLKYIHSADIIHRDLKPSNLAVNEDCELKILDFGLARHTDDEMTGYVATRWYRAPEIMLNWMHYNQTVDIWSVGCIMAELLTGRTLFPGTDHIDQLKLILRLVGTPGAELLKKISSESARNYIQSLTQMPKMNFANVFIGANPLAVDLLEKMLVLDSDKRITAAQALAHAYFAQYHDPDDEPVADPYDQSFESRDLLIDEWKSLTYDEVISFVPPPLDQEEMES
Chain of Serine/threonine-protein kinase tousled-like 2 (Homo sapiens) (Q86UE8 whole entry, looked up): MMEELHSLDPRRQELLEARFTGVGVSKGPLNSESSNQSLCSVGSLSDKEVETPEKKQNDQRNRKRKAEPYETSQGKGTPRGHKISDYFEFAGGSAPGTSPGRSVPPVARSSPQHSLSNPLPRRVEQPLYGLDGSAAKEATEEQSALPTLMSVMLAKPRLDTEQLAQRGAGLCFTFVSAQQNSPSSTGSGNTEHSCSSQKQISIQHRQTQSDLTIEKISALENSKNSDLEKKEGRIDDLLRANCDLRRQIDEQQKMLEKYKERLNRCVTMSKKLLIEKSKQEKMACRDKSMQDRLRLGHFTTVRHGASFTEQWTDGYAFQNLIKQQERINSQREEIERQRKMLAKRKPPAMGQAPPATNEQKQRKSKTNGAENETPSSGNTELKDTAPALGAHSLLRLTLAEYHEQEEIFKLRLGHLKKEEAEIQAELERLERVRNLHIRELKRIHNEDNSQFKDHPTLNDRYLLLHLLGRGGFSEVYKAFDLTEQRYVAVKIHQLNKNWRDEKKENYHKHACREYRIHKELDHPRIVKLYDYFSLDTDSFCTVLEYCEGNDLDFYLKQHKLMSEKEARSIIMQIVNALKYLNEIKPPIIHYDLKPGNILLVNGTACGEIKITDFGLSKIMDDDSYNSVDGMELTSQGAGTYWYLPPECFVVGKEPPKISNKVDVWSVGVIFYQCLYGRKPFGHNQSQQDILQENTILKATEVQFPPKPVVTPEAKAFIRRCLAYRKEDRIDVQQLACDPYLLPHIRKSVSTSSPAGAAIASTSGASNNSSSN
Chain of Serine/threonine-protein kinase 32B (Homo sapiens) (Q9NY57 whole entry): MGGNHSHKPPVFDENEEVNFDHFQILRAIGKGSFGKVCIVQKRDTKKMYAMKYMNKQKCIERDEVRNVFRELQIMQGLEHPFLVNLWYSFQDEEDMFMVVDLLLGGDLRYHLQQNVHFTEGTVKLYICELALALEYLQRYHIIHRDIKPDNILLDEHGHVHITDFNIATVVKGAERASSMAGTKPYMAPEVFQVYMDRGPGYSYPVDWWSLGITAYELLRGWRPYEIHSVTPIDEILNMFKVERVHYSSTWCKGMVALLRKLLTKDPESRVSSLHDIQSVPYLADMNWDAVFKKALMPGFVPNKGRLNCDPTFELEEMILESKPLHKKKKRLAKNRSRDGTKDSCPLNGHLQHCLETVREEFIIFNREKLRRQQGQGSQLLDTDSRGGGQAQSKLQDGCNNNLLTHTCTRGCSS
Chain of Alpha-2C adrenergic receptor (Homo sapiens) (P18825 whole entry): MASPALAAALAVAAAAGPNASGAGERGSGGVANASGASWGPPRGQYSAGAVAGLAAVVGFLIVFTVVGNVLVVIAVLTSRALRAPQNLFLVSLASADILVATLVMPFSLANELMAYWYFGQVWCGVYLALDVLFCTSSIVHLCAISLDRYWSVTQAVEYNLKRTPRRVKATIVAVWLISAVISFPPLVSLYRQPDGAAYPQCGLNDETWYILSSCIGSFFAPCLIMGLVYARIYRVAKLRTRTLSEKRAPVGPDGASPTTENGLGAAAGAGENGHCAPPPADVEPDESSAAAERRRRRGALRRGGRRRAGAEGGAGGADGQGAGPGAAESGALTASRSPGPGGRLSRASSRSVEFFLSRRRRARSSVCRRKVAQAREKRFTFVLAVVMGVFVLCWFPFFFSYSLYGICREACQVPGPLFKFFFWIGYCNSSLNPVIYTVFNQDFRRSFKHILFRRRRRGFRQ
Chain of Serine/threonine-protein kinase Nek7 (Homo sapiens) (Q8TDX7 whole entry, looked up): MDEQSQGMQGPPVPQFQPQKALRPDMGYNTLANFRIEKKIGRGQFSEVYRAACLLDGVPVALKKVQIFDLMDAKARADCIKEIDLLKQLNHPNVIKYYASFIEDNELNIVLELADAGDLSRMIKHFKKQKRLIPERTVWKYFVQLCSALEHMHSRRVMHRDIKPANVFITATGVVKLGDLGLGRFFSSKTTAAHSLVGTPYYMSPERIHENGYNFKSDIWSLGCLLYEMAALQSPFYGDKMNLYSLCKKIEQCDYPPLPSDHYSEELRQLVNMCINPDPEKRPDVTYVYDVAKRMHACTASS

CCS(=O)(=O)c1cc2cc(C[C@](O)(CC(C)(C)c3ccc(F)cc3C(N)=O)C(F)(F)F)[nH]c2cn1
residual activity [1]: 94%
residual activity [2]: 85%
residual activity [3]: 100%
residual activity [4]: 91%
residual activity [5]: 100%
residual activity [6]: 100%
residual activity [7]: 96%
residual activity [8]: 96%
residual activity [9]: 100%
residual activity [10]: 100%
residual activity [11]: 90%
residual activity [12]: 94%
residual activity [13]: 86%
residual activity [14]: 100%
residual activity [15]: 100%
inhibition [16]: 4.75%
residual activity [17]: 100%
residual activity [18]: 100%
residual activity [19]: 100%
inhibition [20]: 0.64%
residual activity [21]: 100%
residual activity [22]: 86%
residual activity [23]: 97%
residual activity [24]: 85%
residual activity [25]: 100%
residual activity [26]: 100%
inhibition [27]: -2.58%
inhibition [28]: -1.88%
residual activity [29]: 100%
residual activity [30]: 82%
residual activity [31]: 100%
residual activity [32]: 100%
residual activity [33]: 94%
residual activity [34]: 90%
residual activity [35]: 100%
residual activity [36]: 100%
residual activity [37]: 99%
residual activity [38]: 100%
residual activity [39]: 100%
residual activity [40]: 94%
residual activity [41]: 100%
inhibition [42]: 1.86%
residual activity [43]: 100%
residual activity [44]: 100%
residual activity [45]: 100%

CCS(=O)(=O)c1cc2cc(C[C@@](O)(CC(C)(C)c3ccc(F)cc3C(N)=O)C(F)(F)F)[nH]c2cn1
residual activity [1]: 60%
residual activity [2]: 91%
residual activity [3]: 97%
residual activity [4]: 76%
residual activity [5]: 85%
residual activity [6]: 95%
residual activity [7]: 97%
residual activity [8]: 89%
residual activity [9]: 97%
residual activity [10]: 100%
residual activity [11]: 61%
residual activity [12]: 100%
residual activity [13]: 72%
residual activity [14]: 0%
residual activity [15]: 100%
inhibition [16]: 11.2%
residual activity [17]: 84%
residual activity [18]: 79%
residual activity [19]: 100%
inhibition [20]: 7.33%
residual activity [21]: 99%
residual activity [22]: 87%
residual activity [23]: 91%
residual activity [24]: 100%
residual activity [25]: 97%
residual activity [26]: 100%
inhibition [27]: -3.88%
inhibition [28]: 5.83%
residual activity [29]: 83%
residual activity [30]: 100%
residual activity [31]: 96%
residual activity [32]: 92%
residual activity [33]: 100%
residual activity [34]: 82%
residual activity [35]: 96%
residual activity [36]: 100%
residual activity [37]: 73%
residual activity [38]: 100%
residual activity [39]: 73%
residual activity [40]: 100%
residual activity [41]: 77%
inhibition [42]: -0.62%
residual activity [43]: 84%
residual activity [44]: 100%
residual activity [45]: 100%
